The results in this text go back to patent US20220340629A1, “Myosin Derived Peptides and Related Compounds with Anticoagulant Activities” (THE SCRIPPS RESEARCH INSTITUTE, priority 0001, published 2022).

Non-standard residues stand in square brackets, D forms with d. Residues, ends and D or L forms follow the SMILES beside them. NMeH = CN[C@@H](Cc1c[nH]cn1)C(=O)O; NMeA = CN[C@@H](C)C(=O)O; Nle = CCCC[C@H](N)C(=O)O

Sequence of skeletal muscle myosin-supported prothrombin activation by factors Xa and Va (P00742 41-179): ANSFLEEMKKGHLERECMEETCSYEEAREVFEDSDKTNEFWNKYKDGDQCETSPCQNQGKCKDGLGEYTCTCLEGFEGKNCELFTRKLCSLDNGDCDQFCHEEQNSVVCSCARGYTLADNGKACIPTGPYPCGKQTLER
Sequence of skeletal muscle myosin-supported prothrombin activation by factors Xa and Va (P00742 235-488): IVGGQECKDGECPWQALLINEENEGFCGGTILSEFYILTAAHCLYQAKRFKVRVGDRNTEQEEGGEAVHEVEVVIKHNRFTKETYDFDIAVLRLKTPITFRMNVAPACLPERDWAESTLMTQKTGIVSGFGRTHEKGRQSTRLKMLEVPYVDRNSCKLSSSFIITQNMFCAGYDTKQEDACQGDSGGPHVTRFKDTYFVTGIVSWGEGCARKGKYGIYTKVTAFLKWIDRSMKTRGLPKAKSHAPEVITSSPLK
Sequence of skeletal muscle myosin-supported prothrombin activation by factors Xa and Va (P12259 29-737 partner): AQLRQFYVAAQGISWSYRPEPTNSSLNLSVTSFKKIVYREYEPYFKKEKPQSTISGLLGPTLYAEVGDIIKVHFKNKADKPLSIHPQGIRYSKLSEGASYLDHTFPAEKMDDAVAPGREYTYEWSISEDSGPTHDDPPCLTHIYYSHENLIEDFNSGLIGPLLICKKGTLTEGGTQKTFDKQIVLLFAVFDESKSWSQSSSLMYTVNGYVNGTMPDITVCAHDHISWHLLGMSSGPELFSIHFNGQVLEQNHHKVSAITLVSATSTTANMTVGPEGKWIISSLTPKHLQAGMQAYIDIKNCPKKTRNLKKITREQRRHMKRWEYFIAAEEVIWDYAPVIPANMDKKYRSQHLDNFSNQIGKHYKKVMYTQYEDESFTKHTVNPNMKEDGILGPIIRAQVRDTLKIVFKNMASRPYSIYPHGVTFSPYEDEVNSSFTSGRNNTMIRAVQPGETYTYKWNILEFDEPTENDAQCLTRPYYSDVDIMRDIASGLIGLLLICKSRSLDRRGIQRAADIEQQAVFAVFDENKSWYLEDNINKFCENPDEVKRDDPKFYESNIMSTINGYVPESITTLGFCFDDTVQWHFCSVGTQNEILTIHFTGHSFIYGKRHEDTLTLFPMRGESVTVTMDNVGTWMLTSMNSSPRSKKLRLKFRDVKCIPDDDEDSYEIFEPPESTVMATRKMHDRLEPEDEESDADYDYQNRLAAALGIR
Sequence of skeletal muscle myosin-supported prothrombin activation by factors Xa and Va (P12259 1574-2224 partner): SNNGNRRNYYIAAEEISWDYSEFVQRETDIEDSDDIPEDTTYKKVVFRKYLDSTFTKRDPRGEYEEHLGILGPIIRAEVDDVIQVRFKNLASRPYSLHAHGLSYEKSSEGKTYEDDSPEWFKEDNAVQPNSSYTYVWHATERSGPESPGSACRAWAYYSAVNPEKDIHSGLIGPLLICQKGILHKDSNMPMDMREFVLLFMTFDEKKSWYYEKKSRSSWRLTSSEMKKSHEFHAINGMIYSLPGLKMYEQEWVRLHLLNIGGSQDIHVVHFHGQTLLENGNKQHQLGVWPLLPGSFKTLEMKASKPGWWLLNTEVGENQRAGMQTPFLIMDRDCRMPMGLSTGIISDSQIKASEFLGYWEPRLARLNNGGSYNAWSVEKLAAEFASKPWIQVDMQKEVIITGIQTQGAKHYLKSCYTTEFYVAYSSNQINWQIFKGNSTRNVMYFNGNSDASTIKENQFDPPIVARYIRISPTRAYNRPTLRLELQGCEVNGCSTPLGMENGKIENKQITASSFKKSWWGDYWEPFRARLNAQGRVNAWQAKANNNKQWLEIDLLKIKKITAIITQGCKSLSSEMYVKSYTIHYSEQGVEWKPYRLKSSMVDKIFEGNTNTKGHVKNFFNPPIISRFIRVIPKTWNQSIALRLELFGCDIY

The first assay addresses skeletal muscle myosin-supported prothrombin activation by factors Xa and Va (Homo sapiens, UniProt P00742). Kind of assay: Assay 1A: prothrombin activation by factor Xa/factor Va/myosin in purified system. Particulars: purified system, prothrombin activation with myosin; read-out: 1A (+ myosin) IC50. The format is biochemical, human factors Xa and Va; rabbit skeletal muscle myosin.
Take `CCCC[C@H](NC(=O)[C@H](Cc1c[nH]c2ccccc12)NC(=O)[C@@H]1CCCN1C(=O)[C@H](Cc1c[nH]c2ccccc12)NC(=O)[C@H](Cc1c[nH]cn1)N(C)C(=O)[C@H](CCCCN)NC(=O)[C@@H](NC(=O)[C@H](CC(N)=O)NC(=O)[C@H](CCCC)NC(=O)[C@H](Cc1ccccc1)NC(=O)[C@H](CO)NC(=O)[C@H](CCCNC(=N)N)NC(=O)[C@@H](NC(=O)[C@H](CC(N)=O)NC(=O)[C@H](Cc1ccc(O)cc1)NC(=O)[C@H](CCC(N)=O)NC(=O)[C@@H](NC(=O)[C@H](CS)NC(=O)[C@H](Cc1ccccc1)NC(=O)[C@@H](NC(=O)[C@H](C)N)[C@@H](C)CC)[C@@H](C)CC)[C@@H](C)CC)C(C)C)C(=O)N[C@@H](CCCCN)C(N)=O` [HC200] (H-AIFCIQYNIRSF[Nle]NVK[NMeH]WPW[Nle]K-NH2; N-terminus assumed): the IC50 amounted to 1.4 µM.
On to “YEDFVEGLRVFDKEGN (Ac-YEDFVEGLRVFDKEGN-NH2) [ELC129-144]”, for which the IC50 was around 70 µM.
As for “RVFDKEGNGTVMGAELRHVL (Ac-RVFDKEGNGTVMGAELRHVL-NH2) [ELC138-157]”, the IC50 was 75 µM.

Still in this assay, the particulars now being: purified system; skeletal muscle myosin, factor Va 5 nM, factor Xa 0.2 nM, prothrombin 0.75 μM, 10 min; read-out: 1A (+myosin).
As to `CC[C@H](C)[C@H](NC(=O)[C@H](C)N)C(=O)N[C@@H](Cc1ccccc1)C(=O)N[C@@H](CS)C(=O)N[C@H](C(=O)N[C@@H](CCC(N)=O)C(=O)N[C@@H](Cc1ccc(O)cc1)C(=O)N[C@@H](CC(N)=O)C(=O)N[C@H](C(=O)N[C@@H](CCCNC(=N)N)C(=O)N[C@@H](CO)C(=O)N[C@@H](C)C(=O)N[C@@H](CCSC)C(=O)N[C@@H](CC(N)=O)C(=O)N[C@H](C(=O)N[C@@H](CCCCN)C(=O)N[C@@H](Cc1c[nH]cn1)C(=O)N[C@@H](Cc1c[nH]c2ccccc12)C(=O)N1CCC[C@H]1C(=O)N[C@@H](Cc1c[nH]c2ccccc12)C(=O)N[C@@H](CCSC)C(=O)N[C@@H](CCCCN)C(N)=O)C(C)C)[C@@H](C)CC)[C@@H](C)CC` [HC127] (H-AIFCIQYNIRSAMNVKHWPWMK-NH2; N-terminus assumed), the IC50 was determined as 5.9 µM.
Still for that read-out and setting: in the case of `CC[C@H](C)[C@H](NC(=O)[C@H](C)N)C(=O)N[C@@H](C)C(=O)N[C@@H](CS)C(=O)N[C@H](C(=O)N[C@@H](CCC(N)=O)C(=O)N[C@@H](Cc1ccc(O)cc1)C(=O)N[C@@H](CC(N)=O)C(=O)N[C@H](C(=O)N[C@@H](CCCNC(=N)N)C(=O)N[C@@H](CO)C(=O)N[C@@H](Cc1ccccc1)C(=O)N[C@@H](CCSC)C(=O)N[C@@H](CC(N)=O)C(=O)N[C@H](C(=O)N[C@@H](CCCCN)C(=O)N[C@@H](Cc1c[nH]cn1)C(=O)N[C@@H](Cc1c[nH]c2ccccc12)C(=O)N1CCC[C@H]1C(=O)N[C@@H](Cc1c[nH]c2ccccc12)C(=O)N[C@@H](CCSC)C(=O)N[C@@H](CCCCN)C(N)=O)C(C)C)[C@@H](C)CC)[C@@H](C)CC` [HC118] (H-AIACIQYNIRSFMNVKHWPWMK-NH2; N-terminus assumed) it was 1.8 µM.
For `CC[C@H](C)[C@H](NC(=O)[C@H](C)N)C(=O)N[C@@H](Cc1ccccc1)C(=O)N[C@@H](CS)C(=O)N[C@H](C(=O)N[C@@H](CCC(N)=O)C(=O)N[C@@H](Cc1ccc(O)cc1)C(=O)N[C@@H](CC(N)=O)C(=O)N[C@H](C(=O)N[C@@H](CCCNC(=N)N)C(=O)N[C@@H](CO)C(=O)N[C@@H](Cc1ccccc1)C(=O)N[C@@H](CCSC)C(=O)N[C@@H](CC(N)=O)C(=O)N[C@H](C(=O)N[C@@H](CCCCN)C(=O)N[C@@H](Cc1c[nH]cn1)C(=O)N[C@@H](Cc1c[nH]c2ccccc12)C(=O)N1CCC[C@H]1C(=O)N[C@@H](Cc1c[nH]c2ccccc12)C(=O)N[C@@H](C)C(=O)N[C@@H](CCCCN)C(N)=O)C(C)C)[C@@H](C)CC)[C@@H](C)CC` [HC136] (H-AIFCIQYNIRSFMNVKHWPWAK-NH2; N-terminus assumed), the IC50 is 1.6 µM.
On the same count and under the same terms, the result for `CCCC[C@H](NC(=O)[C@H](Cc1c[nH]c2ccccc12)NC(=O)[C@@H]1CCCN1C(=O)[C@H](Cc1c[nH]c2ccccc12)NC(=O)[C@H](Cc1c[nH]cn1)NC(=O)[C@H](CCCCN)NC(=O)[C@@H](NC(=O)[C@H](CC(N)=O)NC(=O)[C@H](CCCC)NC(=O)[C@H](Cc1ccccc1)NC(=O)[C@H](CO)NC(=O)[C@H](CCCNC(=N)N)NC(=O)[C@@H](NC(=O)[C@H](CC(N)=O)NC(=O)[C@H](Cc1ccc(O)cc1)NC(=O)[C@H](CCC(N)=O)NC(=O)[C@@H](NC(=O)[C@H](CS)NC(=O)[C@H](Cc1ccccc1)NC(=O)[C@@H](NC(=O)[C@H](C)NC)[C@@H](C)CC)[C@@H](C)CC)[C@@H](C)CC)C(C)C)C(=O)N[C@@H](CCCCN)C(N)=O` [HC190] (H-[NMeA]IFCIQYNIRSF[Nle]NVKHWPW[Nle]K-NH2; N-terminus assumed) reads 3.6 µM; that for `CC[C@H](C)[C@H](NC(=O)[C@H](C)N)C(=O)N[C@@H](Cc1ccccc1)C(=O)N[C@@H](CS)C(=O)N[C@H](C(=O)N[C@@H](CCC(N)=O)C(=O)N[C@@H](Cc1ccc(O)cc1)C(=O)N[C@@H](CC(N)=O)C(=O)N[C@H](C(=O)N[C@@H](CCCNC(=N)N)C(=O)N[C@@H](C)C(=O)N[C@@H](Cc1ccccc1)C(=O)N[C@@H](CCSC)C(=O)N[C@@H](CC(N)=O)C(=O)N[C@H](C(=O)N[C@@H](CCCCN)C(=O)N[C@@H](Cc1c[nH]cn1)C(=O)N[C@@H](Cc1c[nH]c2ccccc12)C(=O)N1CCC[C@H]1C(=O)N[C@@H](Cc1c[nH]c2ccccc12)C(=O)N[C@@H](CCSC)C(=O)N[C@@H](CCCCN)C(N)=O)C(C)C)[C@@H](C)CC)[C@@H](C)CC` [HC126] (H-AIFCIQYNIRAFMNVKHWPWMK-NH2; N-terminus assumed), 4.9 µM.
On the same count and under the same terms, the result for `CC[C@H](C)[C@H](NC(=O)[C@H](C)N)C(=O)N[C@@H](Cc1ccccc1)C(=O)N[C@@H](CS)C(=O)N[C@H](C(=O)N[C@@H](CCC(N)=O)C(=O)N[C@@H](Cc1ccc(O)cc1)C(=O)N[C@@H](CC(N)=O)C(=O)N[C@@H](C)C(=O)N[C@@H](CCCNC(=N)N)C(=O)N[C@@H](CO)C(=O)N[C@@H](Cc1ccccc1)C(=O)N[C@@H](CCSC)C(=O)N[C@@H](CC(N)=O)C(=O)N[C@H](C(=O)N[C@@H](CCCCN)C(=O)N[C@@H](Cc1c[nH]cn1)C(=O)N[C@@H](Cc1c[nH]c2ccccc12)C(=O)N1CCC[C@H]1C(=O)N[C@@H](Cc1c[nH]c2ccccc12)C(=O)N[C@@H](CCSC)C(=O)N[C@@H](CCCCN)C(N)=O)C(C)C)[C@@H](C)CC` [HC124] (H-AIFCIQYNARSFMNVKHWPWMK-NH2; N-terminus assumed) reads 0.7 µM; that for `CC[C@H](C)[C@H](NC(=O)[C@H](C)N)C(=O)N[C@@H](Cc1ccccc1)C(=O)N[C@@H](CS)C(=O)N[C@H](C(=O)N[C@@H](C)C(=O)N[C@@H](Cc1ccc(O)cc1)C(=O)N[C@@H](CC(N)=O)C(=O)N[C@H](C(=O)N[C@@H](CCCNC(=N)N)C(=O)N[C@@H](CO)C(=O)N[C@@H](Cc1ccccc1)C(=O)N[C@@H](CCSC)C(=O)N[C@@H](CC(N)=O)C(=O)N[C@H](C(=O)N[C@@H](CCCCN)C(=O)N[C@@H](Cc1c[nH]cn1)C(=O)N[C@@H](Cc1c[nH]c2ccccc12)C(=O)N1CCC[C@H]1C(=O)N[C@@H](Cc1c[nH]c2ccccc12)C(=O)N[C@@H](CCSC)C(=O)N[C@@H](CCCCN)C(N)=O)C(C)C)[C@@H](C)CC)[C@@H](C)CC` [HC121] (H-AIFCIAYNIRSFMNVKHWPWMK-NH2; N-terminus assumed), 3.2 µM; that for `CC[C@H](C)[C@H](NC(=O)[C@H](C)N)C(=O)N[C@@H](Cc1ccccc1)C(=O)N[C@@H](CS)C(=O)N[C@H](C(=O)N[C@@H](CCC(N)=O)C(=O)N[C@@H](Cc1ccc(O)cc1)C(=O)N[C@@H](CC(N)=O)C(=O)N[C@H](C(=O)N[C@@H](CCCNC(=N)N)C(=O)N[C@@H](CO)C(=O)N[C@@H](Cc1ccccc1)C(=O)N[C@@H](CCSC)C(=O)N[C@@H](CC(N)=O)C(=O)N[C@H](C(=O)N[C@@H](CCCCN)C(=O)N[C@@H](C)C(=O)N[C@@H](Cc1c[nH]c2ccccc12)C(=O)N1CCC[C@H]1C(=O)N[C@@H](Cc1c[nH]c2ccccc12)C(=O)N[C@@H](CCSC)C(=O)N[C@@H](CCCCN)C(N)=O)C(C)C)[C@@H](C)CC)[C@@H](C)CC` [HC132] (H-AIFCIQYNIRSFMNVKAWPWMK-NH2; N-terminus assumed), 3.1 µM.
As for `CC[C@H](C)[C@H](NC(=O)[C@H](C)N)C(=O)N[C@@H](Cc1ccccc1)C(=O)N[C@@H](CS)C(=O)N[C@H](C(=O)N[C@@H](CCC(N)=O)C(=O)N[C@@H](C)C(=O)N[C@@H](CC(N)=O)C(=O)N[C@H](C(=O)N[C@@H](CCCNC(=N)N)C(=O)N[C@@H](CO)C(=O)N[C@@H](Cc1ccccc1)C(=O)N[C@@H](CCSC)C(=O)N[C@@H](CC(N)=O)C(=O)N[C@H](C(=O)N[C@@H](CCCCN)C(=O)N[C@@H](Cc1c[nH]cn1)C(=O)N[C@@H](Cc1c[nH]c2ccccc12)C(=O)N1CCC[C@H]1C(=O)N[C@@H](Cc1c[nH]c2ccccc12)C(=O)N[C@@H](CCSC)C(=O)N[C@@H](CCCCN)C(N)=O)C(C)C)[C@@H](C)CC)[C@@H](C)CC` [HC122] (H-AIFCIQANIRSFMNVKHWPWMK-NH2; N-terminus assumed), the IC50 turned out to be 1.1 µM.
As to `CC[C@H](C)[C@H](NC(=O)[C@H](C)N)C(=O)N[C@@H](Cc1ccccc1)C(=O)N[C@@H](CS)C(=O)N[C@H](C(=O)N[C@@H](CCC(N)=O)C(=O)N[C@@H](Cc1ccc(O)cc1)C(=O)N[C@@H](CC(N)=O)C(=O)N[C@H](C(=O)N[C@@H](C)C(=O)N[C@@H](CO)C(=O)N[C@@H](Cc1ccccc1)C(=O)N[C@@H](CCSC)C(=O)N[C@@H](CC(N)=O)C(=O)N[C@H](C(=O)N[C@@H](CCCCN)C(=O)N[C@@H](Cc1c[nH]cn1)C(=O)N[C@@H](Cc1c[nH]c2ccccc12)C(=O)N1CCC[C@H]1C(=O)N[C@@H](Cc1c[nH]c2ccccc12)C(=O)N[C@@H](CCSC)C(=O)N[C@@H](CCCCN)C(N)=O)C(C)C)[C@@H](C)CC)[C@@H](C)CC` [HC125] (H-AIFCIQYNIASFMNVKHWPWMK-NH2; N-terminus assumed), the IC50 amounted to 0.6 µM.
